Literature values in patent publication US20240408163A1, “CAPILLARY NUTRITIONAL COMPLEX” (NATURAL FOLIC, S.L., priority 2023, published 2024).

CC1=C(/C=C/C(C)=C/C=C/C(C)=C/C=C/C=C(C)/C=C/C=C(C)/C=C/C2=C(C)C(=O)[C@@H](O)CC2(C)C)C(C)(C)C[C@H](O)C1=O [Astaxanthin]
antioxidant power relative to coenzyme Q10 (times more powerful than coenzyme Q10): 800 times
antioxidant power relative to vitamin C (times more powerful than vitamin C): 6000 times
